{
  "source": "paper PMC9601927",
  "about": "(Foods, 2022)",
  "key": {"GLUT2": {"test_system": "GLUT2", "test": "siRNA-mediated knockdown of GLUT2 in Caco-2 cells (RT-PCR, Western blot)", "type": "cell-based", "conditions": "72 h post-transfection", "procedure": "(§1) To examine the effect of sGLT1 and GLUT2 on ANC transmembrane transport in more detail, the Caco-2 cells were transfected with siRNA targeted to sGLT1 and GLUT2 (sGLT1 siRNA-1, sGLT1 siRNA-2, sGLT1 siRNA-3, GLUT2 siRNA-1, GLUT2 siRNA-2, and GLUT2 siRNA-3) to knockdown their expression on day 18 after differentiation. The specific experimental operation was carried out according to the literature. NC siRNA was used as a negative control. The siRNA oligos and all transfection reagents were provided by Hippobio (Huzhou, China). Western blotting and real-time PCR (RT-PCR) analyses were performed to check the sGLT1 and GLUT2 expression levels after 72 h post-transfection.\n(§2) According to the manufacturer’s instructions, the MiniBEST Universal RNA Extraction Kit was used to isolate the total RNA from Caco-2 cells. Table 2 lists the three specific primers. GAPDH served as an internal control. […] The 2^−ΔΔCt method was adopted to calculate the relative quantification of the target gene.\n(§3) Firstly, the cells were washed twice with 1 mL of cold PBS and then lysed in 100 μL of ice-cold RIPA lysis buffer. […] Finally, the expressions of sGLT1 and GLUT2 were detected using a Western blot assay."}, "sGLT1": {"test_system": "sGLT1", "test": "siRNA-mediated knockdown of sGLT1 in Caco-2 cells (RT-PCR, Western blot)", "type": "cell-based", "conditions": "72 h post-transfection", "procedure": "as §1, §2, §3"}},
  "data": [
    {"substance": "GLUT2 siRNA-2: siRNA targeted to GLUT2: CGGGCATTCTTATTAGTCATT TGACTAATAAGAATGCCCGTT (CGGGCATTCTTATTAGTCATTTGACTAATAAGAATGCCCGTT; chemistry not given here)", "values": [
      {"measurement": "reduction of GLUT2 mRNA levels (RT-PCR)", "setting": "GLUT2", "value": 75, "unit": "%"},
      {"measurement": "silencing of GLUT2 (Western blot) after siRNA transfection", "setting": "GLUT2", "value": "most effective segment"}
    ]},
    {"substance": "sGLT1 siRNA-3: siRNA targeted to sGLT1: GGAGCGTATTGACCTGGATTT ATCCAGGTCAATACGCTCCTT (GGAGCGTATTGACCTGGATTTATCCAGGTCAATACGCTCCTT; chemistry not given here)", "values": [
      {"measurement": "expression of sGLT1 (Western blot) after siRNA transfection", "setting": "sGLT1", "value": "significantly reduced"},
      {"measurement": "reduction of sGLT1 mRNA levels (RT-PCR)", "setting": "sGLT1", "value": 85, "unit": "%"}
    ]}
  ]
}
